What was measured:
Format in all cases: cell-based, human
HSPC-pDCs [1] = test: Phenotypic analysis of pDC-related and maturation surface markers by flow cytometry; settings: priming from day 21, with IL-3
Method: (§1) HSPC-pDCs were cultured in RPMI-1640 medium with 10% heat inactivated FCS, 600 μg/mL L-glutamine, 200 U/mL penicillin and 100 μg/mL streptomycin, but depleted for growth factors used for the cultivation process. As described in individual figure legends, medium was supplemented with IFN-β (PBL Assay Science), IFN-γ (PeproTech) or both cytokines simultaneously (IFN-β+γ). After 24 (day 21+1) or 72 (day 21+3) hours, cells were washed in warm medium, and phenotypically or functionally characterized.
(§2) For functional characterization, cells were seeded in 96-well plates. During stimulation cells were kept in medium with 20 ng/mL IL-3. Twenty hours post stimulation supernatants were harvested and kept at −20° C. until cytokine quantifications. For phenotypic characterization, primed cells were seeded out in 48-well plates and stimulated for 24 hours before phenotypic analysis by flow cytometry.
Immunophenotypical analysis was performed using flow cytometry. Briefly, 2×10^5 cells were spun down and resuspended in PBS with 0.5% BSA and 0.09% NaN3. […] Fluorescence intensities were measured on a LSR Fortessa flow cytometer (Becton Dickinson) with four lasers (405, 488, 561 and 640 nm) and 18 photomultiplier (PMT) detectors. […] Data were analyzed using FlowJo software (version 10, Tree Star, Ashland, Oreg., USA). […]

HSPC-pDCs [2] = test: Functional type I IFN in supernatants after TLR7/TLR9 agonist stimulation (HEK-Blue IFN-α/β reporter); settings: separate priming; TLR7 and TLR9 agonists
Method: as §1, §2
Bioactive functional type I IFN was quantified in supernatants using the reporter cell line HEK-Blue™ IFN-α/β (Invivogen). The cell line was maintained in DMEM+GlutaMax™-I (Gibco®, Life Technologies), supplemented with 10% heat-inactivated FCS, 100 μg/mL streptomycin and 200 U/mL penicillin, 100 μg/mL normocin (InvivoGen), 30 μg/mL blasticidin (InvivoGen) and 100 μg/mL zeocin (InvivoGen). […] SEAP activity was assessed by measuring optical density (OD) at 620 nm on a microplate reader (ELx808, BioTEK). […]

HSPC-pDCs [3] = test: IL-6 in supernatants after TLR7/TLR9 agonist stimulation (ELISA); settings: separate priming; TLR7 and TLR9 agonists
Method: as §1, §2
Protein levels of IL-6 in supernatants were evaluated using ELISA kits (Biolegend) following the manufacturers instructions.

IFN-γ: recombinant IFN-γ (PeproTech) used for priming
expression levels of CD303 and CD304 on HSPC-pDCs after priming (HSPC-pDCs [1]): improved | promotion of type I IFN response in comparison to IFN-β (HSPC-pDCs [2]): less effective | secretion of IL-6 by primed HSPC-pDCs (HSPC-pDCs [3]): predominantly promoted
